Measurements published in patent US10160747B2, “Compounds and methods for kinase modulation, and indications therefor” (Plexxikon Inc., priority 2016, dated 2018).

Target: T1, BA/F3-FLT3-ITD + D835Y (Homo sapiens, UniProt P36888, D835Y, cells depend on it, form not given)
T1 sequence (P36888 with tags, fused parts or gaps INS600HVDFREYEYD/D835Y): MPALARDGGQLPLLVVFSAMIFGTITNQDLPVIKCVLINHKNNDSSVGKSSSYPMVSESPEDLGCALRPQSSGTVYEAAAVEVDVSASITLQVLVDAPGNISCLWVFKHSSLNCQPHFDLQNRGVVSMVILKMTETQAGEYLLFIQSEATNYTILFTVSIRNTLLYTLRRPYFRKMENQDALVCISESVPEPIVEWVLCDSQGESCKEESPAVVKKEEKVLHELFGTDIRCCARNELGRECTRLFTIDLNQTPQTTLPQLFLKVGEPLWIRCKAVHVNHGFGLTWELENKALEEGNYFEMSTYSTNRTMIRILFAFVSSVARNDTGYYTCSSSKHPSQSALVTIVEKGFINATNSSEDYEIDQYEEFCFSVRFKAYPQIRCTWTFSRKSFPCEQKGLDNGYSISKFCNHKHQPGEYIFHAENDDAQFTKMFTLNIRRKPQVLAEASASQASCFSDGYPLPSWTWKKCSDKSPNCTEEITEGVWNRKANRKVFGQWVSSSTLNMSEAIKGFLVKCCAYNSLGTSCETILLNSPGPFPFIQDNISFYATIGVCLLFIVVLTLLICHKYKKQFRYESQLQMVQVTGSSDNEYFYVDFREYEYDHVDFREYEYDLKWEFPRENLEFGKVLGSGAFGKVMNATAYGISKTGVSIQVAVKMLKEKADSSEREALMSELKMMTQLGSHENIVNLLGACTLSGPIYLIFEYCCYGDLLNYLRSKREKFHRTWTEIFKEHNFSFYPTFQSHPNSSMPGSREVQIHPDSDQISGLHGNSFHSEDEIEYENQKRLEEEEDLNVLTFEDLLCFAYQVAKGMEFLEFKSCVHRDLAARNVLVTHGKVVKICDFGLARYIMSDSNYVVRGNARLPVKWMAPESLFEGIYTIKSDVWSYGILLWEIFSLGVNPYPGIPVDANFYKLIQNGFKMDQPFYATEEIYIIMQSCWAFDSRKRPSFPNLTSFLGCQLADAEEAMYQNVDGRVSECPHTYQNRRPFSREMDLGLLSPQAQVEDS
Assay: Engineered BA/F3 cell growth assay, FLT3 ITD/D835Y
Type: cell-based, murine
Details: 3 d growth
Outline: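 IC50 derived from CellTiter-Glo ATP luminescence after 3 days at 37 °C, 5% CO2, over eight 1:3 dilutions from 1 μM (0.2% DMSO final). Cells: IL-3-independent murine Ba/F3 expressing full-length FLT3 ITD/D835Y, 1×10^4 per well.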

Row | Structure (SMILES) | GI50 [µM]
1 | Cn1cc(Nc2ncc(-c3ccc(CC(=O)Nc4ccnc(C(F)(F)F)c4)c(F)c3)cn2)cn1 [Compound P-0083, 2-[2-fluoro-4-[2-[(1-methylpyrazol-4-yl)amino]pyrimidin-5-yl]phenyl]-N-[2-(trifluoromethyl)-4-pyridyl]acetamide] | 0.0001 to 10
2 | Cn1cc(Nc2ncc(-c3ccc(CC(=O)Nc4cncc(C(F)(F)F)c4)c(F)c3)cn2)cn1 [Compound P-0084, 2-[2-fluoro-4-[2-[(1-methylpyrazol-4-yl)amino]pyrimidin-5-yl]phenyl]-N-[5-(trifluoromethyl)-3-pyridyl]acetamide] | 0.0001 to 10
3 | COc1cncc(NC(=O)Cc2ccc(-c3cnc(Nc4cnn(C)c4)nc3)cc2F)c1 [Compound P-0086, 2-[2-fluoro-4-[2-[(1-methylpyrazol-4-yl)amino]pyrimidin-5-yl]phenyl]-N-(5-methoxy-3-pyridyl)acetamide] | 0.0001 to 10
4 | COc1ncc(NC(=O)Cc2ccc(-c3cnc(Nc4cnn(C)c4)nc3)cc2F)cc1C(F)(F)F [Compound P-0089, 2-[2-fluoro-4-[2-[(1-methylpyrazol-4-yl)amino]pyrimidin-5-yl]phenyl]-N-[6-methoxy-5-(trifluoromethyl)-3-pyridyl]acetamide] | 0.0001 to 10
5 | Cn1cc(Nc2ncc(-c3ccc(CC(=O)Nc4cncc(C(C)(F)F)c4)c(F)c3)cn2)cn1 [Compound P-0090, N-[5-(1,1-difluoroethyl)-3-pyridyl]-2-[2-fluoro-4-[2-[(1-methylpyrazol-4-yl)amino]pyrimidin-5-yl]phenyl]acetamide] | 0.0001 to 10
6 | Cn1cnc(Nc2ncc(-c3ccc(CC(=O)Nc4cc(C(C)(F)F)ccn4)cc3F)cn2)c1 [Compound P-0171, N-[4-(1,1-difluoroethyl)-2-pyridyl]-2-[3-fluoro-4-[2-[(1-methylimidazol-4-yl)amino]pyrimidin-5-yl]phenyl]acetamide] | 0.0001 to 10

The remaining lines, values ahead:

Row | GI50 [µM] | Structure (SMILES)
7 | 0.0001 to 10 | Cn1cc(Nc2ncc(-c3ccc(CC(=O)Nc4cc(C(F)(F)F)ccn4)c(F)c3)cn2)cn1 [Compound P-0082, 2-[2-fluoro-4-[2-[(1-methylpyrazol-4-yl)amino]pyrimidin-5-yl]phenyl]-N-[4-(trifluoromethyl)-2-pyridyl]acetamide]
8 | 0.0001 to 10 | Cn1cc(Nc2ncc(-c3ccc(CC(=O)NCc4ccc(C(F)(F)F)nc4)c(F)c3)cn2)cn1 [Compound P-0087, 2-[2-fluoro-4-[2-[(1-methylpyrazol-4-yl)amino]pyrimidin-5-yl]phenyl]-N-[[6-(trifluoromethyl)-3-pyridyl]methyl]acetamide]
9 | 0.0001 to 10 | Cn1cc(Nc2ncc(-c3ccc(CC(=O)NCc4ccccn4)c(F)c3)cn2)cn1 [Compound P-0088, 2-[2-fluoro-4-[2-[(1-methylpyrazol-4-yl)amino]pyrimidin-5-yl]phenyl]-N-(2-pyridylmethyl)acetamide]
10 | 0.0001 to 10 | Cn1cc(Nc2ncc(-c3ccc(CC(=O)NCc4ccc(C(F)(F)F)cn4)cc3)cn2)cn1 [Compound P-0162, 2-[4-[2-[(1-methylpyrazol-4-yl)amino]pyrimidin-5-yl]phenyl]-N-[[5-(trifluoromethyl)-2-pyridyl]methyl]acetamide]
